Laboratory results from PubChem BioAssay (NCI).
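48-hour exposure; five concentrations; linearly interpolated endpoints. TGI denotes the concentration required for complete inhibition of growth.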 Activity calls are given as the source filed them. No stated cut-off is given here; in the data, active means GI50 below about 0.43 µM; inactive means the rest.

Tests used:
Test in all cases: growth of human tumour cells (NCI), 48 h
LOX IMVI melanoma = tested on: LOX IMVI melanoma
SK-OV-3 ovarian = tested on: SK-OV-3 ovarian
EKVX NSCLC = tested on: EKVX NSCLC
K-562 leukemia = tested on: K-562 leukemia
MALME-3M melanoma = tested on: MALME-3M melanoma
NCI-H522 lung = tested on: NCI-H522 lung
CCRF-CEM leukemia = tested on: CCRF-CEM leukemia
HOP-62 NSCLC = tested on: HOP-62 NSCLC
SK-MEL-28 melanoma = tested on: SK-MEL-28 melanoma
DU-145 prostate = tested on: DU-145 prostate
SF-539 CNS = tested on: SF-539 CNS
MDA-N = tested on: MDA-N
NCI/ADR-RES ovarian = tested on: NCI/ADR-RES ovarian
PC-3 prostate = tested on: PC-3 prostate
OVCAR-3 ovarian = tested on: OVCAR-3 ovarian
UACC-257 melanoma = tested on: UACC-257 melanoma
SNB-19 CNS = tested on: SNB-19 CNS
OVCAR-5 ovarian = tested on: OVCAR-5 ovarian
KM12 colon = tested on: KM12 colon
ACHN renal = tested on: ACHN renal
786-0 renal = tested on: 786-0 renal
A549 NSCLC = tested on: A549 NSCLC
SN12C renal = tested on: SN12C renal
A498 renal = tested on: A498 renal
RPMI-8226 leukemia = tested on: RPMI-8226 leukemia
HS 578T breast = tested on: HS 578T breast
HCC-2998 colon = tested on: HCC-2998 colon
M14 melanoma = tested on: M14 melanoma
MDA-MB-231 breast = tested on: MDA-MB-231 breast
HCT-15 colon = tested on: HCT-15 colon
OVCAR-8 ovarian = tested on: OVCAR-8 ovarian
SF-295 CNS = tested on: SF-295 CNS
SW-620 colon = tested on: SW-620 colon
OVCAR-4 ovarian = tested on: OVCAR-4 ovarian
HOP-92 NSCLC = tested on: HOP-92 NSCLC
UO-31 renal = tested on: UO-31 renal
U251 CNS = tested on: U251 CNS
SK-MEL-5 melanoma = tested on: SK-MEL-5 melanoma
HL-60(TB) leukemia = tested on: HL-60(TB) leukemia
SK-MEL-2 melanoma = tested on: SK-MEL-2 melanoma
T-47D breast = tested on: T-47D breast
MOLT-4 leukemia = tested on: MOLT-4 leukemia
CAKI-1 renal = tested on: CAKI-1 renal
SNB-75 CNS = tested on: SNB-75 CNS
NCI-H460 lung = tested on: NCI-H460 lung
BT-549 breast = tested on: BT-549 breast
NCI-H23 lung = tested on: NCI-H23 lung
IGROV1 ovarian = tested on: IGROV1 ovarian
UACC-62 melanoma = tested on: UACC-62 melanoma
COLO 205 colon = tested on: COLO 205 colon
RXF 393 renal = tested on: RXF 393 renal
HT29 colon = tested on: HT29 colon
HCT-116 colon = tested on: HCT-116 colon
SF-268 CNS = tested on: SF-268 CNS
MDA-MB-435 = tested on: MDA-MB-435
TK-10 renal = tested on: TK-10 renal
NCI-H226 lung = tested on: NCI-H226 lung
SR leukemia = tested on: SR leukemia
MCF7 breast = tested on: MCF7 breast

## COc1ccc2nc3c([N+](=O)[O-])ccc4c3c(c2c1)N(CCCN(C)C)C(=S)N4CCCN(C)C
LOX IMVI melanoma
  TGI: 14.4 µM
SK-OV-3 ovarian
  TGI: 34.4 µM
EKVX NSCLC
  TGI: 31 µM
K-562 leukemia
  TGI: > 40 µM
MALME-3M melanoma
  TGI: 12.4 µM
NCI-H522 lung
  TGI: 7.58 µM
CCRF-CEM leukemia
  TGI: > 100 µM
HOP-62 NSCLC
  TGI: 22.7 µM
SK-MEL-28 melanoma
  TGI: 37.4 µM
DU-145 prostate
  TGI: 20.2 µM
SF-539 CNS
  TGI: 22 µM
MDA-N
  TGI: 21.3 µM
NCI/ADR-RES ovarian
  TGI: 24.4 µM
PC-3 prostate
  TGI: 18 µM
OVCAR-3 ovarian
  TGI: 21.2 µM
UACC-257 melanoma
  TGI: 15.5 µM
SNB-19 CNS
  TGI: 25.8 µM
OVCAR-5 ovarian
  TGI: 34.6 µM
KM12 colon
  TGI: 10.2 µM
ACHN renal
  TGI: 17.9 µM
786-0 renal
  TGI: 15.7 µM
A549 NSCLC
  TGI: 22.2 µM
SN12C renal
  TGI: 19.2 µM
A498 renal
  TGI: 33.5 µM
RPMI-8226 leukemia
  TGI: 22.8 µM
HS 578T breast
  TGI: 31.1 µM
HCC-2998 colon
  TGI: 10.1 µM
M14 melanoma
  TGI: 20.4 µM
MDA-MB-231 breast
  TGI: 22.6 µM
HCT-15 colon
  TGI: 28.7 µM
OVCAR-8 ovarian
  TGI: 21.5 µM
SF-295 CNS
  TGI: 19.5 µM
SW-620 colon
  TGI: 16.4 µM
OVCAR-4 ovarian
  TGI: 70.7 µM
HOP-92 NSCLC
  TGI: 21.3 µM
UO-31 renal
  TGI: 25.9 µM
U251 CNS
  TGI: 20.2 µM
SK-MEL-5 melanoma
  TGI: 12.3 µM
HL-60(TB) leukemia
  TGI: > 100 µM
SK-MEL-2 melanoma
  TGI: 34.2 µM
T-47D breast
  TGI: 43 µM
MOLT-4 leukemia
  TGI: > 100 µM
CAKI-1 renal
  TGI: 29.1 µM
SNB-75 CNS
  TGI: 29.3 µM
NCI-H460 lung
  TGI: 9.75 µM
BT-549 breast
  TGI: 30.8 µM
NCI-H23 lung
  TGI: 30 µM
IGROV1 ovarian
  TGI: 24.3 µM
UACC-62 melanoma
  TGI: 34.4 µM
COLO 205 colon
  TGI: 6.01 µM
RXF 393 renal
  TGI: 22.9 µM
HT29 colon
  TGI: 11.2 µM
HCT-116 colon
  TGI: 15.9 µM
SF-268 CNS
  TGI: 35.3 µM
MDA-MB-435
  TGI: 19.1 µM
TK-10 renal
  TGI: 23.8 µM
NCI-H226 lung
  TGI: 22.4 µM
SR leukemia
  TGI: > 100 µM
MCF7 breast
  TGI: 19.2 µM

## O=c1cc(-c2ccc(O)c(O)c2-c2c(O)cc3oc(-c4ccc(O)c(O)c4)cc(=O)c3c2O)oc2cc(O)cc(O)c12
LOX IMVI melanoma
  outcome: inactive
SK-OV-3 ovarian
  outcome: inactive
EKVX NSCLC
  outcome: inactive
K-562 leukemia
  outcome: inactive
MALME-3M melanoma
  outcome: inactive
NCI-H522 lung
  outcome: inactive
CCRF-CEM leukemia
  outcome: inactive
HOP-62 NSCLC
  outcome: inactive
SK-MEL-28 melanoma
  outcome: inactive
DU-145 prostate
  outcome: inactive
SF-539 CNS
  outcome: inactive
MDA-N
  outcome: inactive
NCI/ADR-RES ovarian
  outcome: inactive
PC-3 prostate
  outcome: inactive
OVCAR-3 ovarian
  outcome: inactive
UACC-257 melanoma
  outcome: inactive
SNB-19 CNS
  outcome: inactive
OVCAR-5 ovarian
  outcome: inactive
KM12 colon
  outcome: inactive
ACHN renal
  outcome: inactive
786-0 renal
  outcome: inactive
A549 NSCLC
  outcome: inactive
SN12C renal
  outcome: inactive
A498 renal
  outcome: inactive
RPMI-8226 leukemia
  outcome: inactive
HS 578T breast
  outcome: inactive
HCC-2998 colon
  outcome: inactive
M14 melanoma
  outcome: inactive
MDA-MB-231 breast
  outcome: inactive
HCT-15 colon
  outcome: inactive
OVCAR-8 ovarian
  outcome: inactive
SF-295 CNS
  outcome: inactive
SW-620 colon
  outcome: inactive
OVCAR-4 ovarian
  outcome: inactive
HOP-92 NSCLC
  outcome: inactive
UO-31 renal
  outcome: inactive
U251 CNS
  outcome: inactive
SK-MEL-5 melanoma
  outcome: inactive
HL-60(TB) leukemia
  outcome: inactive
SK-MEL-2 melanoma
  outcome: inactive
T-47D breast
  outcome: inactive
CAKI-1 renal
  outcome: inactive
SNB-75 CNS
  outcome: inactive
BT-549 breast
  outcome: inactive
NCI-H23 lung
  outcome: inactive
IGROV1 ovarian
  outcome: inactive
UACC-62 melanoma
  outcome: inactive
COLO 205 colon
  outcome: inactive
RXF 393 renal
  outcome: inactive
HT29 colon
  outcome: inactive
HCT-116 colon
  outcome: inactive
SF-268 CNS
  outcome: inactive
MDA-MB-435
  outcome: inactive
TK-10 renal
  outcome: inactive
NCI-H226 lung
  outcome: inactive
SR leukemia
  outcome: inactive
MCF7 breast
  outcome: inactive
